In paper PMC11472313, “Development of Fragment-Based Inhibitors of the Bacterial Deacetylase LpxC with Low Nanomolar Activity” (Journal of Medicinal Chemistry, 2024):
≈ marks a conversion by molar mass, not a printed value.

Experiments:
E. coli BL21(DE3) = details: cited from earlier work
E. coli LpxC C63A [1] = molecular target: T1, E. coli LpxC C63A (Escherichia coli, UniProt P0A725, C63A); details: versus (2R,3S)-10; cited from earlier work
T1 construct: made in house; host or cells: E. coli BL21(DE3)
T1 sequence (P0A725 whole entry C63A): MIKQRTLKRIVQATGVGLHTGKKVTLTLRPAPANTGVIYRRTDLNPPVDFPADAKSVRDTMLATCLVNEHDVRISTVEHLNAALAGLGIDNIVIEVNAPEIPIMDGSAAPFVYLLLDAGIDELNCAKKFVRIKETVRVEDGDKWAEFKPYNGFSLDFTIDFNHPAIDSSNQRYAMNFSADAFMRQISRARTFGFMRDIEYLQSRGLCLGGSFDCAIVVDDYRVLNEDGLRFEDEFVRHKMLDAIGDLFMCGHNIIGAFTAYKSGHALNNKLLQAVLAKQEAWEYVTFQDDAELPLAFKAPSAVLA

E. coli LpxC C63A [2] = molecular target: T1, E. coli LpxC C63A; assay: LC–MS/MS-based determination of KM; assay type: biochemical; details: substrate 1, LC–MS/MS-based assay
Procedure: In order to determine the inhibitory activities of the compounds of interest toward E. coli LpxC, a fluorescence-based enzyme assay was deployed, in which the formed deacetylated natural product UDP-3-O-[(R)-3-hydroxymyristoyl]glucosamine (2) is transformed into a fluorescent isoindole with o-phthaldialdehyde and 2-mercaptoethanol.[48],[49] […] The KM of E. coli LpxC C63A was determined experimentally using a mass spectrometry-based LpxC assay (Figure S8, Supporting Information, vide infra).
Generally, the LC–MS/MS-based method represents an alternative to analyze compounds, which cannot be tested in the fluorescence-based assay, like primary amines and intrinsically fluorescent compounds. Additionally, it offers the advantage that lower substrate concentrations (10%) are used in the established protocol compared to the fluorescence-based assay, in which the detection of respectively low product concentrations would be difficult to detect due to inherently high background fluorescence. […] Additionally, the KM of E. coli LpxC C63A could be determined using the LC–MS/MS-based method (Figure S8, Supporting Information, vide supra). […]
The values of KM and vmax for the E. coli LpxC C63A- as well as the P. aeruginosa LpxC-catalyzed deacetylation of UDP-3-O-[(R)-3-hydroxymyristoyl]-N-acetylglucosamine (1) were determined using the conditions of the established LC-MS/MS-based enzyme assay. […]

P. aeruginosa LpxC = molecular target: T2, P. aeruginosa LpxC (Pseudomonas aeruginosa, UniProt P47205); assay: LC–MS/MS-based determination of KM; assay type: biochemical; details: read-out: KM of the P. aeruginosa LpxC-catalyzed deacetylation; substrate 1, LC–MS/MS-based assay
T2 construct: made in house; host or cells: E. coli BL21(DE3)
T2 sequence (P47205 whole entry): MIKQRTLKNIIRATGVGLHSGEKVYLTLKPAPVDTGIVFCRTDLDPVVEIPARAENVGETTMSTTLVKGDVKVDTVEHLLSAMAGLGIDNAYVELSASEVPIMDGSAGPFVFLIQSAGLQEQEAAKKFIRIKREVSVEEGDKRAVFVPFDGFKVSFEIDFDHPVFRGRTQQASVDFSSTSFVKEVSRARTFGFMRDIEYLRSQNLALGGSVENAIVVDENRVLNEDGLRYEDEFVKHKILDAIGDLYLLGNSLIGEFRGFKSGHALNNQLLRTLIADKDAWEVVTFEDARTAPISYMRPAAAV
Text: Generally, the LC–MS/MS-based method represents an alternative to analyze compounds, which cannot be tested in the fluorescence-based assay, like primary amines and intrinsically fluorescent compounds. Additionally, it offers the advantage that lower substrate concentrations (10%) are used in the established protocol compared to the fluorescence-based assay, in which the detection of respectively low product concentrations would be difficult to detect due to inherently high background fluorescence. […] Additionally, the KM of E. coli LpxC C63A could be determined using the LC–MS/MS-based method (Figure S8, Supporting Information, vide supra).
Determination of enzymatic parameters
The values of KM and vmax for the E. coli LpxC C63A- as well as the P. aeruginosa LpxC-catalyzed deacetylation of UDP-3-O-[(R)-3-hydroxymyristoyl]-N-acetylglucosamine (1) were determined using the conditions of the established LC-MS/MS-based enzyme assay.
The wells in a black, non-binding, 96-well fluorescence microplate (Greiner Bio One, Frickenhausen) were filled with 93 µL of varying concentrations of UDP-3-O-[(R)-3-hydroxymyristoyl]-N-acetylglucosamine (26.9 µM, 10.8 µM, 2.69 µM, 1.08 µM, 0.538 µM, 0.269 µM) in assay buffer (40 mM sodium morpholinoethanesulfonic acid (pH = 6.0), 80 µM dithiothreitol, 0.02% Brij 35). […]

| SMILES | MIC E. coli BL21(DE3) (E. coli BL21(DE3)) [µg/mL] | fold higher LpxC inhibitory activity than its (2R)-configured diastereomer (E. coli LpxC C63A [1]) | Km (E. coli LpxC C63A [2]) [µM] | Km (P. aeruginosa LpxC) [µM] |
| --- | --- | --- | --- | --- |
| O=C(NO)[C@@H](OCc1ccc(C#Cc2ccc(CN3CCOCC3)cc2)cc1)[C@@H](O)COCc1ccccc1 [(2S,3S)-10] | 4.0 (≈ 7.54 µM) | about 3 fold |  |  |
| CCCCCCCCCCCC(O)CC(=O)OC1C(O)C(CO)OC(OP(=O)(O)OP(=O)(O)OCC2OC(n3ccc(=O)[nH]c3=O)C(O)C2O)C1NC(C)=O [compound 1, UDP-3-O-[(R)-3-hydroxymyristoyl]-N-acetylglucosamine] |  |  | 3.6 | 4.7 |
